By melting point is commonly meant the temperature, or range, at which the solid turns liquid.

Consider `O=C(O)CNC(=O)c1ccc(Oc2ccccc2)cc1`, for which the melting point was 156 to 158 °C. The figure for `CCOCCNC(=O)c1ccc(Br)cc1` is 99 to 101 °C; for `CC(C)(C)OC(=O)NCC1CCCCN1` (stereo not drawn) it is 93 to 95 °C; for `O=C(O)/C=C/c1cc(Cl)ccc1Cl` it is 192 to 194 °C. To `O=C(CCl)N(C1CCCC1)C1CCS(=O)(=O)C1` (stereo not drawn) belongs < 17 °C; to `O=C(CCl)Nc1cccc(S(=O)(=O)N=C2CCCN2)c1`, 156 to 160 °C. To `O=C(O)c1c2c(nc3ccccc13)C(=Cc1ccccc1Cl)CCC2` belongs 98 to 100 °C. `Cc1ccc(Nc2nnc(S)s2)cc1Cl` displayed a melting point of 210 to 212 °C.

`CS(=O)(=O)c1ccccc1-n1cc(C(=O)O)cn1` yielded a melting point of 225 to 227 °C. The figure for `O=C(O)c1ccc(-c2cccc(C(F)(F)F)c2)cc1F` is 208 to 210 °C. The figure for `Clc1nc(Cl)c2ccccc2n1` is 117 to 119 °C; for `CCOC(=O)c1cnc2c(OC)cc(Cl)c(OC)c2c1Cl` it is 152 to 154 °C; for `O=C(O)c1ccc(CN2C(=O)CCC2=O)cc1` it is 229 to 231 °C. The figure for `c1ccc2c(c1)CC(n1cccn1)CN2` (stereo not drawn) is 102 to 104 °C; for `CC(=O)Nc1sc2c(c1C(=O)O)CCCC2` it is 210 to 212 °C; for `NNc1nc(Cl)c(Cl)cc1Cl` it is 161 to 163 °C.

In turn, `Sc1nnc(C2CCCCC2)o1` came in with a melting point of 81 to 83 °C. The figure for `CS(=O)(=O)c1nc(C(=O)O)c2ccccn12` is 259 to 261 °C; for `COc1ccc(C(=O)/C=C2\NC(=O)CS2)cc1` it is 210 to 212 °C; for `Cc1ccc(S(=O)(=O)N2CCOCC2)cc1NC(=O)CCl` it is 76 to 78 °C.

The compound `Cc1ccc(C)c(OCCCCC(=O)O)c1` registered a melting point of 56 to 58 °C. `NNC(=O)Cc1cc(=O)[nH]c(S)n1`: the melting point is 242 to 244 °C. To `O=Cc1cnn2cccnc12` belongs 149 to 151 °C; to `O=S(=O)(Cl)c1csc(-c2ccc(F)cc2)n1`, 75 to 77 °C.

`Cc1csc(-c2cnc(C)[nH]c2=O)n1` gave a melting point of 302 to 304 °C. The figure for `O=Cc1ccc(Br)c2cccnc12` is 119 to 121 °C.

The compound `Nc1nc(Cc2ccccc2)c(-c2ccccc2)s1` gave a melting point of 139 to 141 °C. To `COc1cc(N)ccc1S(=O)(=O)Nc1ccc(F)c(Cl)c1` belongs 165 to 167 °C. The figure for `O=C(O)c1cc(-c2ccc(Cl)s2)nc2ccccc12` is 242 to 244 °C; for `Cc1ccc(C(=O)CBr)cc1C` it is 63 to 65 °C. As to `CC(C)c1cc(Br)cc([N+](=O)[O-])c1N`, the melting point fell in the range of 39 to 41 °C.

`Nc1nnc(Cc2ccsc2)s1` registered a melting point of 177 to 179 °C.

Take `O=[N+]([O-])c1cc(Br)ccc1S(=O)(=O)Cl`: the melting point lay within 95 to 97 °C. To `Nc1ccc(C(=O)N2CCCC2c2ccccc2)cc1` (stereo not drawn) belongs 120 to 122 °C; to `CS(=O)(=O)c1ccc(C2CO2)cc1` (stereo not drawn), 97 to 99 °C; to `CN1CCN(S(=O)(=O)c2ccc(Cl)c(N)c2)CC1`, 103 to 107 °C. The figure for `Nc1cc(F)c(Br)cc1[N+](=O)[O-]` is 166 to 168 °C; for `O=C1CS/C(=C/C(=O)c2ccco2)N1` it is 251 to 253 °C. The figure for `O=C1COc2c(cccc2C(=O)O)N1` is 311 to 313 °C. Take `CC(O)c1nc2cc(Cl)ccc2s1` (stereo not drawn): the melting point is 109 to 111 °C. The figure for `Cc1ccc(NC(=O)CC#N)cc1` is 188 to 190 °C. On to `NC(=O)NCCCC(=O)O`, for which the melting point fell in the range of 171 to 173 °C. The figure for `CCCNc1ccc(S(N)(=O)=O)cc1N` is 104 to 106 °C; for `Cc1nc(-c2ccc(N)cc2)cc(=O)[nH]1` it is 259 to 261 °C; for `NC(=NO)c1cc(Br)cs1` it is 132 to 134 °C.

In the case of `N#Cc1cc(F)cc(F)c1[N+](=O)[O-]`, the melting point lay within 95 to 97 °C. To `COc1ccc(C(=O)N2CCCC2)cc1N` belongs 137 to 139 °C; to `O=C(O)c1cccc(S(=O)(=O)Nc2ccccc2Cl)c1`, 186 to 188 °C. The figure for `CCCc1noc2nc(-c3cccnc3)cc(C(=O)O)c12` is 259 to 261 °C. To `Nc1cccnc1-n1cccn1` belongs 65 to 67 °C. In the case of `NC(=NO)c1ccccc1Cl`, the melting point is 87 to 91 °C.

In the case of `Cc1[nH]c2ccccc2c1C(=O)C(=O)O`, the melting point was 199 to 201 °C.

Compound `O=C(O)c1ccnc(OCCOc2cc(C(=O)O)ccn2)c1` yielded a melting point of 269 to 271 °C.

In turn, `NCCN1C(=O)Cc2ccccc21` registered a melting point of 88 to 90 °C.

`O=C(O)C1CCCN(C(=O)NC2CCCC2)C1` (stereo not drawn) returned a melting point of 167 to 169 °C. As to `CN(C)C(C(=O)O)c1cc(Cl)cc(Cl)c1` (stereo not drawn), the melting point was in the range of 170 to 172 °C. The figure for `O=C1CCc2c(F)cc(F)cc21` is 95 to 97 °C. The figure for `CCc1cc(=O)n2c([nH]c3ccccc32)c1C#N` is 244 to 246 °C; for `NC(=O)c1cccc(OCCC(=O)O)c1` it is 196 to 198 °C; for `O=C(O)C1=CCCO1` it is 98 to 100 °C. The compound `Nc1ccccc1NS(=O)(=O)c1cccs1` displayed a melting point of 188 to 190 °C. The figure for `CC(NC(=O)CCl)c1ccc2ccccc2c1` (stereo not drawn) is 201 to 203 °C; for `CN(C1CCCCC1)S(=O)(=O)c1ccccc1N` it is 98 to 101 °C.

`Nc1ccc(N2C(=O)CCC2=O)cc1` had a melting point of 239 to 241 °C. To `Cc1nc(C)c2c(C)c(C(=O)O)sc2n1` belongs 347 to 349 °C. The figure for `CC1=NN(c2cccc(C(F)(F)F)c2)C(=O)C1` is 127 to 129 °C. The figure for `O=S(=O)(c1ccccc1)c1ccc(O)cc1` is 135 to 137 °C; for `CC1(c2ccccc2F)NC(=O)NC1=O` (stereo not drawn) it is 214 to 216 °C; for `O=C(O)c1ccc(-c2nc(C3CC3)no2)cc1` it is 241 to 243 °C. For `COc1ccc2cc(-c3cc(C(=O)O)c4ccccc4n3)ccc2c1`, the melting point lay in the range of 258 to 260 °C. To `CC(=O)Nc1ccc(Cl)cc1N` belongs 141 to 143 °C; to `O=C(O)c1[nH]nc2cc(OC(F)(F)F)ccc12`, 261 to 263 °C. The figure for `CC(C)c1cc(N)n(-c2ncccn2)n1` is 146 to 148 °C; for `COc1ccccc1CNc1nc(-c2ccc(C)cc2)cs1` it is 96 to 98 °C; for `CC(=O)c1cnn(-c2ccccc2)c1` it is 124 to 126 °C. Compound `c1ccc(C2CNCCS2)cc1` (stereo not drawn) yielded a melting point of 60 to 62 °C. To `N#Cc1ccccc1/C=C/C(=O)O` belongs 255 to 257 °C; to `CC(C)(C)OC(=O)N1CCC(O)(Cc2cccc(Cl)c2)C1` (stereo not drawn), 109 to 111 °C. The figure for `CC1(c2cccc(Cl)c2)NC(=O)NC1=O` (stereo not drawn) is 200 to 202 °C; for `Cc1ccc(NC(=O)C(C)Cl)cc1S(=O)(=O)N1CCOCC1` (stereo not drawn) it is 151 to 153 °C; for `Cn1ccnc1SCC(=O)Nc1ccccc1C(=O)O` it is 203 to 205 °C.

For `O=c1[nH]c2ccc(C(F)(F)F)cc2c(=O)o1`, the melting point lay in the range of 269 to 271 °C.

The compound `O=C(O)C1CCCN(S(=O)(=O)c2ccc(Cl)cc2)C1` (stereo not drawn) registered a melting point of 202 to 204 °C. `CC(=O)N(C)c1nc(CCl)cs1` came in with a melting point of 139 to 141 °C.

On to `O=C(O)c1cccc(S)c1`, for which the melting point lay within 144 to 147 °C.

`Nc1cc2c(cc1[N+](=O)[O-])OCCCO2` had a melting point of 73 to 77 °C. To `C#CCNC(=O)c1cccc(C#N)c1` belongs 132 to 134 °C; to `Cc1cc(C=O)nc(N2CCCCC2)n1`, 49 to 51 °C. The figure for `O=Cc1csc(-c2ccco2)n1` is 90 to 92 °C; for `CS(=O)(=O)C1CSCCN1` (stereo not drawn) it is 115 to 117 °C; for `Nc1nc(-c2cccs2)ns1` it is 163 to 165 °C. To `CCOC(=O)C(NC(=O)C(C)C)C(=O)OCC` belongs 75 to 77 °C; to `CS(=O)(=O)CC(=O)c1ccccc1`, 106 to 108 °C; to `O=[N+]([O-])c1ccc2c(S(=O)(=O)Cl)c[nH]c2c1`, 173 to 175 °C. `CCN(CC)S(=O)(=O)c1cccc(NC(=O)CCl)c1` had a melting point of 82 to 84 °C. In the case of `CC(Cl)C(=O)Nc1cccc(Cl)c1` (stereo not drawn), the melting point lay within 98 to 100 °C.

In the case of `Cc1ccc(O)c(S(=O)(=O)N(C)C)c1`, the melting point lay in the range of 76 to 78 °C. The figure for `CCCOc1ccc(C(F)(F)F)cc1NC(=O)CCl` is 73 to 75 °C; for `N#Cc1ccccc1COc1cccc(C(=O)O)c1` it is 181 to 183 °C. The figure for `NC(=O)Nc1cccc2ccccc12` is 284 to 286 °C; for `c1cc(NC2CCCCCC2)c2cccnc2c1` it is 100 to 102 °C.

Take `O=C(NC1CCCNC1)c1ccccc1` (stereo not drawn): the melting point lay in the range of 130 to 132 °C. To `OCc1cnn(Cc2ccc(Br)cc2)c1` belongs 72 to 74 °C; to `CC(C)c1ccc(C(N)=S)cc1`, 148 to 150 °C.

The compound `CCOC(=O)c1ccc(S(=O)(=O)N2CCC(C(=O)O)CC2)cc1` returned a melting point of 219 to 221 °C. The compound `CCN(CC)S(=O)(=O)c1cc(N)ccc1Cl` returned a melting point of 95 to 99 °C. To `O=C(CCCl)N1CCN(c2ncccn2)CC1` belongs 139 to 141 °C.

With `CCCN1CCc2c(sc(N)c2C(=O)OCC)C1`, the melting point lay in the range of 69 to 73 °C. To `O=C(O)C=CC1CCOCC1` belongs 134 to 136 °C; to `CC1(c2cccc(-n3cnnn3)c2)NC(=O)NC1=O` (stereo not drawn), 190 to 192 °C; to `CC1(C)OC(=O)C(=Cc2ccc(I)o2)C(=O)O1`, 124 to 126 °C.

Regarding `O=C(O)c1cc(-c2cccnc2)nc2nc(N3CCCC3)sc12`, the melting point fell in the range of 329 to 331 °C. The figure for `Nc1nnc(-c2cccc3ccccc23)[nH]1` is 219 to 221 °C; for `CCOc1cc(C=O)ccc1OCC(F)(F)F` it is 38 to 40 °C; for `Cc1cc(Cl)ccc1OCc1n[nH]c(-c2ccccn2)n1` it is 174 to 176 °C. To `CCCCCCn1cc(S(=O)(=O)Cl)c(=O)[nH]c1=O` belongs 157 to 159 °C. To `CCC(=O)Nc1ccc(N)cc1` belongs 82 to 84 °C; to `O=C1CCCC(=O)N1c1ncc(Br)s1`, 139 to 141 °C.

For the origin of these results see a melting point compilation (Tetko et al.).
